From PubChem BioAssay AID504556 (Southern Research Specialized Biocontainment Screening …, 2011)
Active and inactive are the calls of the source. No rule for the calls is given here. Residues, ends and D or L forms follow the SMILES beside them. *: point of attachment. Cbz = O=C(OCc1ccccc1)*

Columns and labels:
[1] = system: Mycobacterium tuberculosis H37Rv growth in 7H9 medium; assay: M. tuberculosis H37Rv growth inhibitors – 7H9 medium, purified and synthesized compounds, set 2, dose response (AID 504556); conditions: for IC90: measured here: M. tuberculosis growth IC90
[2] = as above; conditions: Mycobacterium tuberculosis H37Rv growth in 7H9 medium; at 25 µM (top of the series)

Compound | IC50 [1] | IC90 [1] | growth inhibition [2]
CNc1nc(SCc2ccccc2Cl)nc2c1CCCC2 | 680 nM | 1910 nM | 
Cc1ccc(NC(=O)C2C3/C=C\CCCCC32)cc1C (stereo not given) | 1490 nM | 4010 nM | 
O=C(/C=C/c1ccccc1)N1CCN(CCN2C(=O)c3cccc4cccc(c34)C2=O)CC1 | 1290 nM | 3470 nM | 
CC1CCN(C(=O)C2CCN(c3nnc(-n4cccc4)s3)CC2)CC1 | 890 nM | 2230 nM | 
COC(=O)C1CC(=O)N(c2ccc(OCc3ccccc3Cl)cc2)C1 (stereo not given) | 220 nM | 3840 nM | 
CCOC1OC(=O)C(Cl)=C1Nc1ccccc1C (stereo not given) | 2020 nM | 9040 nM | 
CC(C)NC(=O)c1sc(=S)n2c1[nH]c(=O)c1ccc(C(=O)NCCc3ccc(Cl)cc3)cc12 | 80 nM | 230 nM | 
Cc1ccc2c(c1)c(C1=c3ccccc3=NC1=O)c(O)n2C | 250 nM | 1720 nM | 
COC(=O)C(Nc1nc(SCC(=O)NC2CCCCC2)nc2ccccc12)c1ccccc1 (stereo not given) |  |  | 2.12% (inactive)
CCOC(=O)COn1c2c(c3c4no[n+]([O-])c4ccc31)CCCC2 | 1730 nM | 3680 nM | 
CC(=NCc1ccc2c(c1)OCO2)C1=C(O)c2ccccc2C1=O | 400 nM | 6040 nM | 
COC(=O)c1cc(=O)n(-c2ccc(F)cc2)c(=Nc2ccc(F)cc2)s1 | 150 nM | 1460 nM | 
Cc1ccc2ccc3ccc(C)nc3c2n1 | 50 nM | 230 nM | 
O=C1C(Br)=Cc2cccc3cccc1c23 | 20 nM | 1080 nM | 
O=C(/C=C\c1cccs1)N1CCN(Cc2ccc3c(c2)OCO3)CC1 | 330 nM | 1970 nM | 
S=c1nc[nH]c2nc[nH]c12 | 950 nM | 1570 nM | 
CCC(C)Nc1ccc(NC(C)CC)cc1 (stereo not given) | 320 nM | 590 nM | 
COC(=O)CCc1nc2c(C#N)c(-c3ccc(Cl)cc3)ccn2n1 | 1110 nM | 2460 nM | 
Cc1cc(Br)ccc1NC(=O)c1cnc(N2CCN(c3ccccn3)CC2)c2ccccc12 | 180 nM | 1470 nM | 
CCc1ccc(/C=C2/C(=O)N(C)C(=S)N2CC(=O)OC)s1 | 190 nM | 3110 nM | 

Compound | IC50 [1] | IC90 [1] | growth inhibition [2]
Cc1cccc(/C=C/C(=O)c2ccc([N+](=O)[O-])o2)c1 | < 10 nM | < 10 nM | 
Cc1nn2c(NCc3ccccn3)cc(C(C)C)nc2c1-c1ccccc1 | 510 nM | 820 nM | 
CCOC(=O)c1ccc(NC(=O)Cn2ncc(Cl)c(Cl)c2=O)cc1 | 70 nM | 480 nM | 
COC(=O)c1ccc(CNc2c(N3CCCC3)c(=O)c2=O)cc1 |  |  | 0.86% (inactive)
CCOC(=O)C(C)Sc1ncnc2c1nnn2-c1ccc(F)cc1 (stereo not given) | 70 nM | 3420 nM | 
Cc1nc(SCC(=O)NC2CCCCC2)[nH]c(=O)c1C | 40 nM | 1030 nM | 
Oc1ccccc1/C=N/Nc1ccnc(SCc2ccccc2)n1 |  |  | 19.3% (inactive)
c1ccc(/N=C2\N=C(Nc3ccccn3)c3ccccc32)nc1 | < 10 nM | < 10 nM | 
Cc1ccc(C(=O)N/N=C(/CC(=O)c2cccs2)C(F)(F)F)cc1 | 540 nM | 1050 nM | 
Cc1cccc(-c2oc3ccc(-c4ccc5c(c4)OCO5)cc3c2C#Cc2cncn2C)c1 | 2360 nM | 3220 nM | 
COc1cc(NC(=O)C/C(C)=N/NC(=O)c2ccccn2)c(OC)cc1Cl | 990 nM | 3040 nM | 
COC(=O)C(C)Oc1ccc(-c2nccc(-c3ccccn3)n2)cc1 (stereo not given) | 1170 nM | 2590 nM | 
Nc1c(C(=O)NC2CCCCC2)nsc1C(=O)OCC(=O)NC1CCCCC1 | 380 nM | 2090 nM | 
O=C(CSc1nc2ccccc2c(=O)[nH]1)NC1CCCCC1 | < 10 nM | < 10 nM | 
CC[N+](C)(CC)CCCCOc1ccc2c(c1)C(=O)c1cc(OCCCC[N+](C)(CC)CC)ccc1-2 | 770 nM | 1220 nM | 
O=C(CSc1nc2ccccc2c(=O)[nH]1)NCc1ccc(Cl)cc1 | 160 nM | 720 nM | 
CCOC(=O)CNC(=O)[C@H](Cc1ccccc1)NC(=O)OCc1ccccc1 (Cbz-Phe-Gly-OEt) | 610 nM | 1220 nM | 
O=C(NCC(c1cccs1)N1CCOCC1)c1cc([N+](=O)[O-])cc([N+](=O)[O-])c1 (stereo not given) | 90 nM | 190 nM | 
CCOC(=O)COc1ccc(/C=C2\NC(=S)N(CC)C2=O)cc1 | 820 nM | 6190 nM | 
